# Measurements as given in article PMC9118628, “Synthesis, molecular docking, and cytotoxicity of quinazolinone and dihydroquinazolinone derivatives as cytotoxic agents” (BMC Chemistry, 2022).
# Like-named read-outs stand apart in the source and are kept apart here.
# What was measured:
# [1] = tested on: MCF-7 breast cancer cell line; assay: MTT cytotoxicity assay, MCF-7; format: cell-based; conditions: Homo sapiens
# Protocol: (§1) The selected compounds 5a–e and 10a–f were evaluated as possible cytotoxic agents against human colon cancer HCT-116 cell line and MCF-7 breast cancer cell line by MTT assay using doxorubicin as the standard drug. […] The IC50 value was calculated from the inhibition rates at the mentioned durations. […] This is because the IC50 values in 72 h with p-value < 0.0001 are less than those in 48 h.
# (§2) The human cancer cells MCF-7and HCT-116 as well as Hek-293 as normal cells were purchased from Pastor Institute of Iran. The cells were maintained in RPMI 1640 medium supplemented with 10% heat-inactivated fetal bovine serum (Company: DNAbiotec, Cat number: DB9723), and streptomycin ([…]) and penicillin (100 U/ml) at 37 °C in a humidified atmosphere with 5% CO2 in the air.
# (§3) The cytotoxic activities of compounds 5a–e and 10a–f were evaluated against cancerous cell lines. […] The absorbance was read at 570 nm against a test wavelength of 690 nm […]. The inhibition percentage of compounds was calculated as: ODwells treated with DMSO1%–ODwells treated with compounds/ODwells treated with DMSO1%*100 (OD = absorbance). Then, IC50 values were calculated by nonlinear regression analysis.
# [2] = tested on: human colon cancer HCT-116 cell line; assay: MTT cytotoxicity assay, HCT-116; format: cell-based
# Protocol: as §1, §2, §3
# Hek-293 cell lines = assay: MTT toxicity assessment on normal cells; format: cell-based; conditions: for toxicity against Hek-293 cell lines (in words): Hek-293 normal cells; for IC50: Homo sapiens, HEK293, Hek-293 normal cells, 72 h, read-out: IC50 (µM) Hek-293 after 72 h
# Protocol: as §2, §3
# PARP10 = conditions: cited from earlier work
# [3] = MCF7, MCF-7, 48 h, read-out: IC50 (µM) MCF-7 48 h
# [4] = MCF7, MCF-7, 72 h, read-out: IC50 (µM) MCF-7 72 h
# [5] = HCT-116, 48 h, read-out: IC50 (µM) HCT-116 48 h
# [6] = HCT-116, 72 h, read-out: IC50 (µM) HCT-116 72 h
melting point,SMILES,"IC50 [1, 3]","IC50 [1, 4]","IC50 [2, 5]","IC50 [2, 6]",toxicity against Hek-293 cell lines (in words) (Hek-293 cell lines),IC50 (Hek-293 cell lines),IC50 (PARP10)
69 to 72 °C,"O=C1c2ccccc2NC(c2ccc(OCc3cn(Cc4ccc(F)cc4)nn3)cc2)N1Cc1ccc(F)cc1 (stereo not drawn) [Compound 10f, 3-(4-fluorobenzyl)-2-(4-((1-(4-fluorobenzyl)-1H-1,2,3-triazol-4-yl)methoxy)phenyl)-2,3-dihydroquinazolin-4(1H)-one]",41.5 µM,16.3 µM,40.4 µM,10.1 µM,low toxicity,56.1 ± 10.4 µM,–
84 to 87 °C,"O=C1c2ccccc2NC(c2ccc(OCc3cn(Cc4ccc(Cl)cc4)nn3)cc2)N1Cc1ccccc1 (stereo not drawn) [Compound 10c, 3-benzyl-2-(4-((1-(4-chlorobenzyl)-1H-1,2,3-triazol-4-yl)methoxy)phenyl)-2,3-dihydroquinazolin-4(1H)-one]",52 µM,32.3 µM,120 µM,61 µM,–,–,–
83 to 86 °C,"O=C1c2ccccc2NC(c2ccc(OCc3cn(Cc4ccc(F)cc4)nn3)cc2)N1Cc1ccccc1 (stereo not drawn) [Compound 10b, 3-benzyl-2-(4-((1-(4-fluorobenzyl)-1H-1,2,3-triazol-4-yl)methoxy)phenyl)-2,3 dihydroquinazolin-4(1H)-one]",139 µM,98.5 µM,184 µM,64 µM,–,–,–
63 to 65 °C,"Cc1ccccc1Cn1cc(COc2ccc(C3Nc4ccccc4C(=O)N3Cc3ccc(F)cc3)cc2)nn1 (stereo not drawn) [Compound 10e, 3-(4-fluorobenzyl)-2-(4-((1-(2-methylbenzyl)-1H-1,2,3-triazol-4-yl)methoxy)phenyl)-2,3-dihydroquinazolin-4(1H)-one]",79.1 µM,48.8 µM,48.2 µM,33.3 µM,–,–,–
65 to 68 °C,"O=C1c2ccccc2NC(c2ccc(OCc3cn(Cc4ccccc4)nn3)cc2)N1Cc1ccccc1 (stereo not drawn) [Compound 10a, 3-benzyl-2-(4-((1-benzyl-1H-1,2,3-triazol-4-yl)methoxy)phenyl)-2,3-dihydroquinazolin-4(1H)-one]",62.3 µM,18.9 µM,88.8 µM,29 µM,–,–,–
–,CC#Cc1ccc2c(=O)[nH]c(CSc3ncccn3)nc2c1 [Compound G],–,–,–,–,–,–,9.3 µM
143 to 146 °C,"CC(C)n1c(Nc2ccccc2)nc2ccccc2c1=O [Compound 5e, 3-isopropyl-2-(phenylamino)quinazolin-4(3H)-one]",79 µM,42.7 µM,88.7 µM,63.3 µM,–,–,–
93 to 95 °C,"O=C1c2ccccc2NC(c2ccc(OCc3cn(Cc4ccc(Br)cc4)nn3)cc2)N1Cc1ccccc1 (stereo not drawn) [Compound 10d, 3-benzyl-2-(4-((1-(4-bromobenzyl)-1H-1,2,3-triazol-4-yl)methoxy)phenyl)-2,3-dihydroquinazolin-4(1H)-one]",44.7 µM,14.8 µM,251 µM,206 µM,–,–,–
141 to 144 °C,"O=c1c2ccccc2nc(Nc2ccccc2)n1C1CC1 [Compound 5c, 3-cyclopropyl-2-(phenylamino)quinazolin-4(3H)-one]",74.9 µM,50.4 µM,59.2 µM,29.2 µM,–,–,–
–,CC#Cc1ccc2c(=O)[nH]c(CSc3ccc(C(=O)O)cc3)nc2c1 [Compound F],–,–,–,–,–,–,0.2 µM
194 to 197 °C,"O=c1c2ccccc2nc(Nc2ccccc2)n1CCl [Compound 5b, 3-(chloromethyl)-2-(phenylamino)quinazolin-4(3H)-one]",101 µM,76.2 µM,59.3 µM,37.8 µM,–,–,–
–,"COc1cccc2c1C(=O)c1c(O)c3c(c(O)c1C2=O)C[C@@](O)(C(=O)CO)C[C@@H]3O[C@H]1C[C@H](N)[C@H](O)[C@H](C)O1 [DOX, doxorubicin, reference compound]",1.33 µM,1.08 µM,1.66 µM,1.2 µM,–,0.75 ± 0.09 µM,–
256 to 259 °C,"COc1ccc(-n2c(Nc3ccccc3)nc3ccccc3c2=O)cc1 [Compound 5d, 3-(4-methoxyphenyl)-2-(phenylamino)quinazolin-4(3H)-one]",28.8 µM,25 µM,39.2 µM,17.8 µM,low toxicity,68.1 ± 12.3 µM,–
254 to 258 °C,"Cc1ccccc1Nc1nc2ccccc2c(=O)n1-c1ccccc1 [Compound 5a, 2-[(2-Methylphenyl)amino]-3-phenylquinazolin-4(3H)-one]",71.2 µM,14.7 µM,7.15 µM,4.87 µM,high toxicity,8.71 ± 1.23 µM,–
–,Cc1c(-c2ccnc(C(F)(F)F)c2)ccc2c1CCNC2=O [H],–,–,–,–,–,–,2.7 µM
